Results published in patent publication US20120064056A1, “DICHLORACETATE IN COMBINATION WITH CLINICALLY HIGH LEVELS OF CARDIOPROTECTIVE OR HEMODYNAMIC DRUGS” (THE GOVERNORS OF THE UNIVERSITY OF ALBERTA TEC Edmonton, priority 2002, published 2012).
Values joined by “and” are separate entries in the source; they are usually repeats but may differ in a detail not shown here. Equal values may be shown once.

Tests used:
[1] = system: isolated rat hearts subjected to global ischemia; test: Isolated working rat heart, global no flow ischemia and reperfusion: cardiac function and efficiency; details: for Aortic Outflow / Cardiac Output / Coronary Flow / HR × PSP / Heart Rate / Peak Systolic Pressure: post-ischemic reperfusion, DCA 2 mM, digoxin 3 nM, metoprolol 1 μM
Procedure: (§1) Hearts were trimmed of excess tissue, and the pulmonary artery and the opening to the left atrium were then cannulated. After 15 min of Langendorff perfusion, hearts were switched to the working mode by clamping the aortic inflow line from the Langendorff reservoir and opening the left atrial inflow line. The perfusate was delivered from an oxygenator into the left atrium at a constant preload pressure of 11 mm Hg. […] The afterload was set at a hydrostatic pressure of 80 mm Hg. […] Palmitate was bound to the albumin as described previously ([…]., et al. J Biol. Chem. 267:3825-3831 (1992)). […] For the aerobic model hearts, all tested compounds were introduced into the heart 5 minutes into the working mode following Langendorff Perfusion. Spontaneously beating hearts were used in all perfusions. Heart rate and aortic pressure were measured with a Biopac Systems Inc. blood pressure transducer connected to the aortic outflow line. Cardiac output and aortic flow were measured with Transonic […] ultrasonic flow probes in the preload and afterload lines, respectively. Coronary flow was calculated as the difference between cardiac output and aortic flow. […] Cardiac work was calculated as the product of systolic pressure and cardiac output. Cardiac efficiency was defined as a ratio of cardiac work to MVO2. […] All tested compounds were introduced into the perfusate five minutes prior to reperfusion.

isolated rat hearts [2] = test: Isolated working rat heart, aerobic perfusion: cardiac function and efficiency; set-up: Cardiac Work (CO · PSP): unit not given beside the values; details: for Aortic Outflow / Cardiac Efficiency (CW · O2^−1) / Cardiac Output / Cardiac Work (CO · PSP) / Coronary Flow / HR × PSP / Heart Rate / O2 Consumption / Peak Systolic Pressure: aerobically perfused, DCA 2 mM, diltiazem 0.8 μM, digoxin 3 nM, metoprolol 1 μM, dobutamine 1 μM; for effect on functional parameters shown in Table 2 incl. O2 consumption and cardiac efficiency, in words / effect on functional parameters shown in Table 1 (heart rate, peak systolic pressure, HR×PSP), in words: normal hearts, aerobic; for effect on functional parameters shown in Table 2 incl. O2 consumption and cardiac efficiency, in words: compared to control; for effect on functional parameters shown in Table 1 (heart rate, peak systolic pressure, HR×PSP), in words: compared to control (DCA and dobutamine: compared to dobutamine alone)
Procedure: (§2) Rat hearts were cannulated for isolated working heart perfusions as described in “An imbalance between glycolysis and glucose oxidation is a possible explanation for the detrimental effects of high levels of fatty acids during aerobic reperfusion of ischemic hearts.”, (J Pharmacol Exp Ther. 264:135 (1993); herein incorporated by reference. In brief, male Sprague-Dawley rats (0.3-0.35 kg) were anesthetized with pentobarbital sodium (60 mg/kg IP) and hearts were quickly excised, the aorta was cannulated and a retrograde perfusion at 37° C. was initiated at a hydrostatic pressure of 60 mm Hg. Hearts were trimmed of excess tissue, and the pulmonary artery and the opening to the left atrium were then cannulated. After 15 min of Langendorff perfusion, hearts were switched to the working mode by clamping the aortic inflow line from the Langendorff reservoir and opening the left atrial inflow line. The perfusate was delivered from an oxygenator into the left atrium at a constant preload pressure of 11 mm Hg. Perfusate was ejected from spontaneously beating hearts into a compliance chamber (containing 1 ml of air) and into the aortic outflow line. The afterload was set at a hydrostatic pressure of 80 mm Hg. All working hearts were perfused with Krebs'-Henseleit solution containing calcium 2.5 mmol/L, glucose 5.5 mmol/L, 3% bovine serum albumin (Fraction V, Boehringer Mannheim), and with 1.2 mmol/L palmitate. Palmitate was bound to the albumin as described previously (Saddik M., et al. J Biol. Chem. 267:3825-3831 (1992)). The perfusate was recirculated, and pH was adjusted to 7.4 by bubbling with a mixture containing 95% O2 and 5% CO2. For the aerobic model hearts, all tested compounds were introduced into the heart 5 minutes into the working mode following Langendorff Perfusion.
Spontaneously beating hearts were used in all perfusions. Heart rate and aortic pressure were measured with a Biopac Systems Inc. blood pressure transducer connected to the aortic outflow line. Cardiac output and aortic flow were measured with Transonic T206 ultrasonic flow probes in the preload and afterload lines, respectively. Coronary flow was calculated as the difference between cardiac output and aortic flow. The O2 contents of the perfusate entering and leaving the heart were measured using YSI™ micro oxygen electrodes placed in the preload and pulmonary arterial lines, respectively. Myocardial O2 consumption (MVO2) was calculated according to the Fick principle, using coronary flow rates and the arteriovenous difference in perfusate O2 concentration. Cardiac work was calculated as the product of systolic pressure and cardiac output. Cardiac efficiency was defined as a ratio of cardiac work to MVO2.

isolated rat hearts [3] = test: Isolated working rat heart, aerobic perfusion: glycolysis and glucose oxidation; set-up: glycolytic rates (glycolysis) / glucose oxidation rates: unit not given here; details: for glucose oxidation rates / glycolytic rates (glycolysis): normal hearts, aerobic, DCA 2 mM, digoxin 3 nM, diltiazem 0.8 μM, dobutamine 1 μM, metoprolol 1 μM; for glucose oxidation rates: FIG. 1, 3, 5, 7, control 361±43; for glycolytic rates (glycolysis): FIG. 2, 4, 6, 8, control 3.430±0.604
Procedure: as §2
Glycolysis and glucose oxidation were measured simultaneously by perfusing hearts with [5-^3H/U-^14C] glucose (Liu H., et al. Am J Physiol. 270:H72-H80 (1996); Taegtmeyer Het al. Am J Cardiol. 80:3A-10A (1997)). The total myocardial ^3H2O production and ^14CO2 production were determined at 10 minute intervals for the entirety of the aerobic period, 60 minutes for normal hearts and 30 minutes for the global ischemia and low flow demand ischemia models. In the global ischemia model, the total myocardial ^3H2O and ^14CO2 production were determined at 20 minute intervals for the 60 minute reperfusion period. In the low flow demand ischemia model, the total myocardial ^3H2O and ^14CO2 production were determined at 10 minute intervals for the 30 minute reperfusion period. Glucose oxidation rates were determined by quantitative measurement of ^14CO2 production as described previously (Barbour R. L., et al. Biochemistr. 1923:6503-6062 (1984)).

[4] = system: isolated rat hearts subjected to low flow demand ischemia; test: Isolated working rat heart, low flow demand ischemia: cardiac function and efficiency; details: DCA 2 mM, diltiazem 0.8 μM, metoprolol 1 μM
Procedure: as §1, with “into initiation of aerobic perfusion.” for “prior to reperfusion.”

[5] = system: isolated rat hearts subjected to global ischemia; test: Isolated working rat heart, global ischemia and reperfusion: glycolysis and glucose oxidation; details: FIG. 10, FIG. 16, DCA 2 mM, digoxin 3 nM, metoprolol 1 μM
Procedure: Hearts were trimmed of excess tissue, and the pulmonary artery and the opening to the left atrium were then cannulated. After 15 min of Langendorff perfusion, hearts were switched to the working mode by clamping the aortic inflow line from the Langendorff reservoir and opening the left atrial inflow line. The perfusate was delivered from an oxygenator into the left atrium at a constant preload pressure of 11 mm Hg. […] The afterload was set at a hydrostatic pressure of 80 mm Hg. […] Palmitate was bound to the albumin as described previously ([…]., et al. J Biol. Chem. 267:3825-3831 (1992)). […] For the aerobic model hearts, all tested compounds were introduced into the heart 5 minutes into the working mode following Langendorff Perfusion. […] All tested compounds were introduced into the perfusate five minutes prior to reperfusion. […] Am J Physiol. 270:[…]. Am J Cardiol. 80:3A-10A (1997)). […] In the global ischemia model, the total myocardial ^3H2O and ^14CO2 production were determined at 20 minute intervals for the 60 minute reperfusion period. […] L., et al. Biochemistr. 1923:6503-6062 (1984)).

[6] = low flow ischemia: aerobic period
[7] = low flow ischemia: ischemic period

Structure (SMILES) | Aortic Outflow [1] | Cardiac Output [1] | Coronary Flow [1] | HR × PSP [1] | Heart Rate [1] | Peak Systolic Pressure [1] | Aortic Outflow (isolated rat hearts [2]) | Cardiac Efficiency (CW · O2^−1) (isolated rat hearts [2]) | Cardiac Output (isolated rat hearts [2]) | Cardiac Work (CO · PSP) (isolated rat hearts [2]) | Coronary Flow (isolated rat hearts [2]) | HR × PSP (isolated rat hearts [2]) | Heart Rate (isolated rat hearts [2]) | O2 Consumption (isolated rat hearts [2]) | Peak Systolic Pressure (isolated rat hearts [2]) | effect on functional parameters shown in Table 2 incl. O2 consumption and cardiac efficiency, in words (isolated rat hearts [2]) | effect on functional parameters shown in Table 1 (heart rate, peak systolic pressure, HR×PSP), in words (isolated rat hearts [2]) | glucose oxidation rates (isolated rat hearts [3]) | glycolytic rates (glycolysis) (isolated rat hearts [3]) | other results
O=C(O)C(Cl)Cl [DCA, dichloroacetate] | 14 ± 6 mL/min | 35 ± 5 mL/min | 21 ± 1 mL/min | 18 ± 2 beats · min^−1 · mmHg · 10^−2 | 208 ± 11 beats · min^−1 | 87 ± 9 mmHg | 30 ± 3 mL/min | 1.69 ± 0.19 | 49 ± 4 mL/min | 61 ± 5 | 20 ± 1 mL/min | 32 ± 1 beats · min^−1 · mmHg · 10^−2 | 239 ± 8 beats · min^−1 | 38 ± 5 μmolO2 · g dry wt^−1 · min^−1 | 125 ± 3 mmHg | no effect | no significant effect | 1697±179 and 1526±79 | 8.917±3.060 | increase in glucose oxidation (isolated rat hearts [3]; aerobic model): over 400%; increase in glycolysis (isolated rat hearts [3]; aerobic model): over 300%; Aortic Outflow [4, 6]: 27 ± 3 mL/min; Cardiac Output [4, 6]: 50 ± 2 mL/min; Coronary Flow [4, 6]: 22 ± 1 mL/min; HR × PSP [4, 6]: 30 ± 1 beats · min^−1 · mmHg · 10^−2; Heart Rate [4, 6]: 214 ± 7 beats · min^−1; Peak Systolic Pressure [4, 6]: 139 ± 3 mmHg; Aortic Outflow [4, 7]: 13 ± 5 mL/min; Cardiac Output [4, 7]: 26 ± 5 mL/min; Coronary Flow [4, 7]: 13 ± 1 mL/min; HR × PSP [4, 7]: 30 ± 1 beats · min^−1 · mmHg · 10^−2; Heart Rate [4, 7]: 214 ± 7 beats · min^−1; Peak Systolic Pressure [4, 7]: 139 ± 3 mmHg
C[C@H]1O[C@@H](O[C@H]2[C@@H](O)C[C@H](O[C@H]3[C@@H](O)C[C@H](O[C@H]4CC[C@@]5(C)[C@H](CC[C@@H]6[C@@H]5C[C@@H](O)[C@]5(C)[C@@H](C7=CC(=O)OC7)CC[C@]65O)C4)O[C@@H]3C)O[C@@H]2C)C[C@H](O)[C@@H]1O [Digoxin, digoxin] | 14 ± 3 mL/min | 34 ± 3 mL/min | 20 ± 1 mL/min | 19 ± 2 beats · min^−1 · mmHg · 10^−2 | 207 ± 12 beats · min^−1 | 93 ± 6 mmHg | 31 ± 1 mL/min |  | 52 ± 1 mL/min | 67 ± 3 | 21 ± 1 mL/min | 32 ± 1 beats · min^−1 · mmHg · 10^−2 | 258 ± 11 beats · min^−1 | 37 ± 3 μmolO2 · g dry wt^−1 · min^−1 | 129 ± 4 mmHg |  | no significant effect |  | 5.651±1.298 | recovery of cardiac function of previously ischemic hearts compared to control, in words ([1]; reperfusion period, FIG. 11, FIG. 17): significantly improves the recovery; recovery of cardiac work of previously ischemic hearts compared to control, in words ([1]; reperfusion period, FIG. 12, FIG. 18): significantly improve the recovery; recovery of oxygen consumption of previously ischemic hearts, in words ([1]; reperfusion period, FIG. 13, FIG. 19): significantly improve the recovery; Aortic Outflow (isolated rat hearts [2]; listed as digoxin): 31 ± 1 mL/min; Cardiac Work (CO · PSP) (isolated rat hearts [2]; listed as digoxin): 67±3; glycolytic rates as compared to control, in words [5]: neither DCA, digoxin, nor digoxin with DCA altered glycolytic rates
CC(CCc1ccc(O)cc1)NCCc1ccc(O)c(O)c1 (stereo not shown) [Dobutamine, dobutamine] |  |  |  |  |  |  | 32 ± 3 mL/min | 1.56 ± 0.43 | 52 ± 2 mL/min | 64 ± 5 | 20 ± 4 mL/min | 40 ± 2 beats · min^−1 · mmHg · 10^−2 | 333 ± 7 beats · min^−1 | 44 ± 9 μmolO2 · g dry wt^−1 · min^−1 | 124 ± 3 mmHg | no significant effect |  | 1707±435 | 13.365±1.981 | HR × PSP (isolated rat hearts [2]; listed as dobutamine): 40±2 beats · min^−1 · mmHg · 10^−2; Heart Rate (isolated rat hearts [2]; listed as dobutamine): 333±7 beats · min^−1; increase in glucose metabolism (isolated rat hearts [3]; aerobic model): ~400%
